Laboratory results reported in a melting point compilation (Tetko et al.; mined from patent text by program, amines drawn as free bases though some values may be those of a salt).

| SMILES | melting point |
| --- | --- |
| CC(C)c1ccc(SCc2c(C(C)C)nc(C(C)C)c(CO)c2-c2ccc(F)cc2)cc1 | 108 to 109 °C |
| CC(C)(C)OC(=O)NNC(=O)c1cc(=O)c(OCc2ccccc2)c[nH]1 | 160 to 165 °C |
| NC1=NC(c2ccc(F)cc2)CO1 (configuration not stated) | 116 to 121 °C |
| CN1CCC(Sc2ccc3[nH]c(=O)[nH]c(=O)c3c2)CC1 | > 260 °C |
| OCCc1ccc(Nc2ncc3c(n2)-c2ccccc2C(c2ccc(Cl)c(Cl)c2)C3)cc1 (configuration not stated) | 94 to 96 °C |
| Cc1noc(C(=O)NC(C)C)c1C(=O)O | 86 to 92 °C |
| O=C1CC(C(=O)O)(c2ccccc2)C1 | 133 to 135 °C |
| COC1=C(OC)C(=O)C(CCCCCCCCCC(=O)N[C@H](CCC(=O)OCc2ccccc2)C(N)=O)=C(C)C1=O | 83 to 85 °C |
| CCN(Cc1cc(Cl)ccc1OCC1CC1)c1ccc(C(N)=O)nn1 | 177 to 178 °C |
| O=C(O)c1cccc2c1CCc1ccsc1-2 | 182 to 184 °C |
| NC(=O)c1ccc(C(N)=O)c(CC(O)CO)c1 (configuration not stated) | 194 °C |
| O=C(Cn1c(-c2cc([N+](=O)[O-])cc([N+](=O)[O-])c2)ncc(NC(=O)OCc2ccccc2)c1=O)NC(Cc1ccccc1)C(=O)C(F)(F)F (configuration not stated) | 154 to 157 °C |
| CCC(Oc1cccc(C)c1C)C(=O)OC1CC(O)C=C2C=CC(C)C(CCC3CC(O)CC(=O)O3)C21 (mixture of isomers) | 148 to 150 °C |
| COC(=O)C(C)(N)Cc1csc2ccccc12 (configuration not stated) | 44 to 45 °C |
| CC(C)N1CC(CO)CC2c3cccc4[nH]cc(c34)CC21 (configuration not stated) | 192 to 194 °C |
| Nc1nc2c(s1)CCN(CC=Cc1ccccc1F)CC2 | 96 to 102 °C |
| CCOc1ccc(-c2nc(-c3cccc(C#N)n3)cs2)cc1OCC | 134 to 136 °C |
| N#CN1c2ccccc2CC(Cl)c2ccccc21 (configuration not stated) | 139 to 140 °C |
| CC(CNC(=O)c1ccc(Oc2ccc(F)cc2)o1)N(O)C(N)=O (configuration not stated) | 180 to 181 °C |
| c1cc(NCC2CCCO2)c2cc3c(cc2n1)OCO3 (configuration not stated) | 276 to 278 °C |
| CCC(c1cnc2c(C)c(NC(=O)c3ccc(-c4ccc(F)cc4)cc3)ccc2c1)N1CCCC1 (configuration not stated) | 188 to 191 °C |
| CS(=O)(=O)OCCOCCOC(=O)Cc1ccccc1Nc1c(Cl)cccc1Cl | 87 °C |
| CCc1c(C(=O)c2cc(C)cc(C)c2)n(CC2=CC(CO)C(CO)C2)c(=O)[nH]c1=O (configuration not stated) | 79 to 80 °C |
| Cc1c(CC(=O)O)c2cc(O)c(F)cc2n1C(=O)c1ccc(Cl)cc1 | 193 to 195 °C |
| COC(=O)c1c(C)nc2c(c1N)c1ccccc1n2C | 98 to 100 °C |

| SMILES | melting point |
| --- | --- |
| Cc1ccc(Sc2cc(C(=O)O)ccc2C(=O)O)cc1 | 326 °C |
| CC(Oc1ccc(C#N)cc1)c1ccnc2ncnn12 (configuration not stated) | 163 to 164 °C |
| CC12CCC(OC(=O)COc3ccccc3)CC1=CCC1C2CCC2(C)C(=NO)CCC12 (configuration not stated) | 118 to 122 °C |
| CN(C)c1cc(=S)ss1 | 193 °C |
| COc1ccc(-n2nc(C)cc2NC2=NCCN2C(C)=O)cc1 | 129 to 131 °C |
| CC1(CN2CCC(C(=O)c3ccc(C(F)(F)F)cc3)CC2)Cn2cc([N+](=O)[O-])nc2O1 (configuration not stated) | 172 to 174 °C |
| O=C(O)COc1cccc2c1Cc1sc(SCC=Cc3ccccc3)nc1-2 | 172 to 174 °C |
| CC(=O)n1cccc(O)c1=O | 140 to 141 °C |
| COc1ccc(CCNCC(O)CO)cc1OC (configuration not stated) | 80 to 82 °C |
| O=C(O)C1(CCCCCCCCCCCCC2(C(F)F)CC2)CC1 | 54 to 54.8 °C |
| COc1cc(NC(=O)OC(C)(C)C)ccc1OCCCN1CCN(c2ccccc2)CC1 | 125 to 126 °C |
| CCOC(=O)C(=O)Nc1cc2c3c(cccc3c1)C(=O)OC2=O | 275 to 276 °C |
| CN1CCN(c2cccc3ccc(-c4cccc(F)c4)cc23)CC1 | 116 °C |
| CC(=O)OC1CSC(Oc2cccc3cc(C(C)=O)oc23)C(OC(C)=O)C1OC(C)=O (configuration not stated) | 208 to 209 °C |
| CN(C)c1cncc(C(=NCCc2ccccc2Cl)NC#N)c1 | 158 °C |
| CC(C)(C)N(N=O)C1CCCCC1 | 87 °C |
| Brc1ccc2cc(OCc3ccc4ccccc4n3)ccc2c1 | 135 to 137 °C |
| O=C1CN(c2cc(Oc3ccccc3)ccc2O)S(=O)(=O)N1 | 153 to 157 °C |
| COCCOCCOCC(=O)N(C)c1c(I)c(N)c(I)c(C(=O)O)c1I | 100 to 109 °C |
| CCCc1nc2c(N)nc3cc(OCC(=O)c4ccccc4)ccc3c2n1CC(C)C | 178 to 180 °C |
| CCOP(=O)(OCC)Oc1cc2c(c3ccccc13)Nc1ccccc1S2 | 162 to 163 °C |
| COc1ccc2[nH]c3c(c2c1)CCC(NC(C)=O)C3 (configuration not stated) | 191 to 193 °C |
| NC(=O)ON(Cc1ccccc1)Cc1ccccc1 | 127 to 129 °C |
| c1ccc(CSc2nc3ccccc3[nH]2)cc1 | 185 to 186 °C |

The next lines start with the values.

| melting point | SMILES |
| --- | --- |
| 148 to 150 °C | COc1ccc(Cl)cc1NC(=O)[C@H]1[C@H](c2cccc(C)c2)C1(C)C (relative stereo) |
| 234 °C | CNC(=S)C1(c2cccc(C)n2)CCCCS1=O (configuration not stated) |
| 107 to 109 °C | CCCCCCCC(O)CNCCCNCC(O)CCCCCCC (configuration not stated) |
| 231 to 233 °C | COC(=O)c1ccc2ncc(C(=O)c3ccc(N4C[C@H](CNC(C)=O)OC4=O)cc3)n2c1 |
| 190 to 195 °C | CC(Oc1cc(O)ccc1[N+](=O)[O-])C(=O)O (configuration not stated) |
| 56 to 57 °C | CCCCCCCCCCCCCCCCCC(=O)NCC(COCCCCCCCCCCCCCCCC)COCc1ccccc1 (configuration not stated) |
| 94 to 97 °C | C=CCCCCCCCCN=C=O |
| 176 to 178 °C | COc1ccc(Cl)cc1C(=O)N(CCCC(=O)O)C(c1ccccc1)c1ccccc1 |
| 83 °C | CCCCCCCCCCc1cnc(-c2ccc3c(c2)C(=O)C(CCCCCCCC)C3)nc1 (configuration not stated) |
| 74 to 75 °C | CCOC(=O)CC(=O)Nc1ccc(Cl)c(Cl)c1 |
| 239 °C | O=C(Nc1cc(Cl)ccc1S(=O)(=O)c1ccc(Cl)cc1)N[C@@H](Cc1ccc(NC(=O)c2c(Cl)cccc2Cl)cc1)C(=O)O |
| 173 to 175 °C | CCC(=O)NC1(c2ccc(C(C)C)cc2OC(=O)CC)C(=O)c2ccccc2C1=O |
| 92 to 94 °C | CCCCC(=O)c1oc(=O)[nH]c1C |
| 195 °C | Clc1ccc2snc(-c3ccc(C4=NCCN4)cc3)c2c1 |
| 107 to 109 °C | CCOC(=O)c1cc2cc(C)sc2[nH]1 |
| 91 to 92 °C | CC1(C)OC[C@@H]([C@@H]2CC(=O)N2)O1 |
| 190 to 192 °C | COc1ccnc(Nc2nc(-c3ccncc3)cs2)c1 |
| 69.4 °C | O=Cc1nccnc1OCc1ccccc1 |
| 99 to 100 °C | Nc1ncccc1OCc1ccccc1Br |
| 119 to 121 °C | CCCCCc1nc2c(N)nc3ccccc3c2s1 |
| 172 to 175 °C | Cc1ccc(COn2c(C)c(C(C)C(=O)O)c3cc4c(cc32)OCO4)cc1 (configuration not stated) |
| 170 to 171 °C | COC(=S)C(=Cc1ccccc1)N1CC(N2C(=O)c3ccccc3C2=O)C1=O (configuration not stated) |
| 256 to 259 °C | O=C1NC(=O)c2c1c(-c1ccccc1Cl)cc1oc3cc(CCCCO)c(O)cc3c21 |
| 167 to 169 °C | COc1ccc(C[C@@H]2COc3ccc(OCc4ccc5ccccc5n4)cc3[C@@H]2O)cc1C(=O)O (relative stereo) |
| 96 to 99 °C | CN(CSC(C)(C)C)C(=O)Nc1cccc(C(F)(F)F)c1 |
| 132 to 133 °C | O=C(O)Cc1noc2cc(F)ccc12 |
| 170 to 176 °C | CC1=CC(C)(C)N2C(=O)C(=O)c3cccc1c32 |

| melting point | SMILES |
| --- | --- |
| 122 to 127 °C | COc1cccc2c(CCCCN(C3CCC3)C3COc4c(F)ccc(C(N)=O)c4C3)coc12 (configuration not stated) |
| 214 to 215 °C | CCc1nc2c(N)nc3cc(OCc4ccccc4)ccc3c2n1CCCCNS(C)(=O)=O |
| 296 to 298 °C | N#Cc1ccc2oc(-c3ccc(O)cc3)cc(=O)c2c1 |
| 125 to 128 °C | COc1ccc(C2CCN(c3c(C)c(C)c4c(c3C)C(O)(c3ccsc3)C(C)(C)O4)CC2)cc1OC (configuration not stated) |
| 100 to 101 °C | CCOC(=O)C1COc2c(C(=O)c3ccccc3)cc(Br)cc21 (configuration not stated) |
| 234 °C | CCCOc1cc2c(cc1-c1cc(-c3ccc(C(=O)O)cc3)ccc1-c1ccccc1)C(C)(C)CCC2(C)C |
| 111 to 112 °C | CCOC(=O)C(C)NC(=O)N(N(CCCl)S(C)(=O)=O)S(C)(=O)=O (configuration not stated) |
| 93.5 to 103 °C | O=C(CCCC=CCC1C(O)CC(O)C1C=CC(O)CCc1ccccc1)ON1C(=O)CCC1=O (configuration not stated) |
| 192 to 194 °C | CCCC(=O)Nc1ccc(C(=O)Nc2ccc3cc(CN4CCCC4)cnc3c2C)cc1 |
| 178 to 180 °C | CCOCc1nc2c(N)nc3ccccc3c2n1CC1(NC(C)=O)CCCCC1 |
| 215 to 217 °C | CC(C)(C)C(NC(=O)c1cc(F)cc(F)c1)Nc1c(Nc2cccnc2Cl)c(=O)c1=O (configuration not stated) |
| 271 to 272 °C | Cc1c(C)c2c(c(C)c1NC(=O)c1ccc(F)cc1)C(c1ccc(C(C)C)cc1)C1(CCN(C)CC1)O2 (configuration not stated) |
| 180 to 181 °C | Clc1ncc(-c2ccnc(N3CCOCC3)n2)c2ccccc12 |
| 44.5 to 46 °C | C=Cc1ccc(CSCCNC(=O)COCC(=O)O)cc1 |
| 117 to 118 °C | CC(=O)SC1C2=C(CCCC2)C(=O)N1c1ccc(Br)cc1F (configuration not stated) |
| 276 °C | NS(=O)(=O)c1ccc(-c2noc(-c3cnn4c(C(F)(F)F)cc(-c5ccc(C(F)(F)F)cc5)nc34)n2)s1 |
| 144 to 145 °C | CC(=O)N(C)C(Cc1ccccc1N)c1ccc(C)s1 (configuration not stated) |
| 116 °C | CCOP(=O)(Cc1cc(Cl)c(O)c(C(C)(C)C)c1)OCC |
| 212 to 214 °C | O=C(Nc1nc(-c2ccccc2)c(-c2nc3ccccc3c(=O)n2-c2ccccc2Cl)s1)c1ccccc1 |
| 237 to 238 °C | O=C(Nc1nccs1)c1nc(-c2cccc3ccccc23)[nH]c1-c1ccc([N+](=O)[O-])cc1 |
| 173 to 174 °C | CC(C)CNc1c([N+](=O)[O-])c2nnnn2c2cnccc12 |
| 37 to 39 °C | CCCCCCCCCCSc1ccc(Br)cc1 |
| 55 to 56 °C | CCC(=O)C(Cc1c(F)cccc1F)C(=O)CC |
| 122 to 124 °C | NC(=O)c1[nH]cnc1OC(=O)c1ccccc1C(=O)OCc1ccccc1 |
| 163 to 164 °C | Cn1ccc(-c2ccc([N+](=O)[O-])o2)n1 |
| 162 to 165 °C | CNC(=O)c1cnn(C(C)(C)C)c1C#N |
